According to patent US20060127315A1, “Methods of treating humans undergoing injection of a contrast agent” (SHIVA BIOMEDICAL, L.L.C., priority 2004, published 2006):

Experiment: Pharmacokinetics of deferiprone, single oral dose crossover study in subjects with mild renal insufficiency
Assay type: in vivo, human
Conditions: patients with mild to moderate renal insufficiency
Method: Blood samples were collected immediately prior to and for a period of 48 hours after each dose and the concentrations of deferiprone determined.

Cc1c(O)c(=O)ccn1C [deferiprone, 1,2-dimethyl-3-hydroxy-pyrid-4-one]
pharmacokinetic profile compared with patients with normal renal function: very similar to that reported with patients with normal renal function
